According to US5053006A, “Method for the permanent occlusion of arteries” (priority 1990, dated 1991):

Tested on: rabbit ocular mucin
Assay: Immunofluorescence of mucin expression with anti-ROM antibody
Type: in vivo
Method: The epithelial phenotype of the control and treated corneas was then studied by impression cytology (Tseng, Ophthalmology, 92:728-33, 1985) and routine histology using hematoxylin and PAS. In addition, immunofluorescent stainings of the frozen sections using a previously developed anti-rabbit ocular mucin monoclonal antibody [anti-ROM] was performed to study mucin expression.
To further confirm the transition of epithelial differentiation, a monoclonal antibody against rabbit ocular mucin [anti-ROM] was used to examine the expression of mucin, the major product of goblet cells.

Structure (SMILES): O=C([O-])c1c(Cl)c(Cl)c(Cl)c(Cl)c1-c1c2cc(I)c(=O)c(I)c-2oc2c(I)c([O-])c(I)cc12.[Na+].[Na+] [rose bengal]
- mucin in epithelium of occluded corneas (four weeks): complete absence
- expression of mucin antigen (with time after vessel occlusion): diminish gradually with time
